Results as given in the NIST ThermoML archive (doi:10.1021/je020140j).

Assay: xn = mol fraction of the nth substance listed
Conditions: 101 kPa, Liquid

OCCO [1,2-ethanediol] + O
Conditions | mass density [kg/m3] | viscosity [mPa·s]
293.15 K, x1 = 0.0312 | 1011.7 | 1.337
293.15 K, x1 = 0.0676 | 1024.6 | 1.785
293.15 K, x1 = 0.1105 | 1037.2 | 2.272
293.15 K, x1 = 0.162 | 1051.3 | 2.951
293.15 K, x1 = 0.2248 | 1064.8 | 3.941
293.15 K, x1 = 0.3031 | 1076.7 | 5.102
293.15 K, x1 = 0.4036 | 1087.8 | 6.898
293.15 K, x1 = 0.537 | 1097.8 | 9.696
293.15 K, x1 = 0.723 | 1105.7 | 14.04
293.15 K, x1 = 1 | 1113.7 | 20.83
303.15 K, x1 = 0.0312 | 1006.1 | 1.047
303.15 K, x1 = 0.0676 | 1018.4 | 1.331
303.15 K, x1 = 0.1105 | 1030 | 1.694
303.15 K, x1 = 0.162 | 1043.4 | 2.2
303.15 K, x1 = 0.2248 | 1056.2 | 2.832
303.15 K, x1 = 0.3031 | 1067.5 | 3.728
303.15 K, x1 = 0.4036 | 1078 | 4.955
303.15 K, x1 = 0.537 | 1087 | 6.749
303.15 K, x1 = 0.723 | – | 9.399
303.15 K, x1 = 1 | – | 13.65
313.15 K, x1 = 0.0312 | 1001.3 | 0.835
313.15 K, x1 = 0.0676 | 1010.6 | 1.022
313.15 K, x1 = 0.1105 | 1021.9 | 1.319
313.15 K, x1 = 0.162 | 1034.7 | 1.677
313.15 K, x1 = 0.2248 | 1046.8 | 2.132
313.15 K, x1 = 0.3031 | 1057.9 | 2.756
313.15 K, x1 = 0.4036 | 1067.9 | 3.575
313.15 K, x1 = 0.537 | 1077.1 | 4.776
313.15 K, x1 = 0.723 | 1085.8 | 6.449
313.15 K, x1 = 1 | 1093.6 | 9.443
323.15 K, x1 = 0.0312 | 994.9 | 0.685
323.15 K, x1 = 0.0676 | 1005.1 | 0.868
323.15 K, x1 = 0.1105 | 1015.1 | 1.064
323.15 K, x1 = 0.162 | 1027.4 | 1.322
323.15 K, x1 = 0.2248 | 1038.6 | 1.657
323.15 K, x1 = 0.3031 | 1049.2 | 2.113
323.15 K, x1 = 0.4036 | 1059 | 2.709
323.15 K, x1 = 0.537 | 1068 | 3.593
323.15 K, x1 = 0.723 | 1076.7 | 4.837
323.15 K, x1 = 1 | 1084.7 | 6.992
333.15 K, x1 = 0.0312 | 989.8 | 0.576
333.15 K, x1 = 0.0676 | 997.9 | 0.713
333.15 K, x1 = 0.1105 | 1007.2 | 0.875
333.15 K, x1 = 0.162 | 1019.2 | 1.073
333.15 K, x1 = 0.2248 | 1030.3 | 1.312
333.15 K, x1 = 0.3031 | 1040.6 | 1.626
333.15 K, x1 = 0.4036 | 1050.3 | 2.053
333.15 K, x1 = 0.537 | 1059.2 | 2.684
333.15 K, x1 = 0.723 | 1068 | 3.51
333.15 K, x1 = 1 | 1076.4 | 5.06
343.15 K, x1 = 0.0312 | 983.7 | 0.498
343.15 K, x1 = 0.0676 | 991.5 | 0.597
343.15 K, x1 = 0.1105 | 1000.4 | 0.728
343.15 K, x1 = 0.162 | 1011.5 | 0.881
343.15 K, x1 = 0.2248 | 1022.3 | 1.071
343.15 K, x1 = 0.3031 | 1031.9 | 1.32
343.15 K, x1 = 0.4036 | 1041.3 | 1.648
343.15 K, x1 = 0.537 | 1050.1 | 2.136
343.15 K, x1 = 0.723 | 1058.8 | 2.817
343.15 K, x1 = 1 | 1067.5 | 3.987
353.15 K, x1 = 0.0312 | 977.1 | 0.434
353.15 K, x1 = 0.0676 | 984.7 | 0.525
353.15 K, x1 = 0.1105 | 993.6 | 0.629
353.15 K, x1 = 0.162 | 1003.8 | 0.758
353.15 K, x1 = 0.2248 | 1014 | 0.906
353.15 K, x1 = 0.3031 | 1023.7 | 1.1
353.15 K, x1 = 0.4036 | 1033 | 1.359
353.15 K, x1 = 0.537 | 1042 | 1.748
353.15 K, x1 = 0.723 | 1050.9 | 2.296
353.15 K, x1 = 1 | 1060 | 3.021
